Measured values taken from US12202844B2, “MAP4K1 inhibitors” (Blueprint Medicines Corporation, priority 2021, dated 2025).

Target: T1, MAP4K1 (HPK1) (Homo sapiens, UniProt Q92918)
T1 construct: purchased Invitrogen
Assay: Inhibition of MAP4K1 biochemical enzymatic activity (EZReader 2 electrophoretic mobility shift)
Conditions: HPK1 (Invitrogen), S6K2tide 1.5 μM, 120 min; ATP 26 μM or 1000 μM (not given)
From the text: MAP4K1 (HPK1) and relevant off-target enzymatic activity was monitored using the Perkin Elmer electrophoretic mobility shift technology platform—the EZReader 2. […] Within the linear, steady-state phase of the kinase enzymatic reaction, the mixed pool of phosphorylated (product) and non-phosphorylated (substrate) peptides was passed through the microfluidic system of the PerkinElmer EZ Reader 2, under an applied electric potential difference. The presence of the phosphate group on the product peptide provided a difference in mass and charge between that of the substrate peptide, resulting in a separation of the substrate and product pools in the sample (Perrin et al. 2010). As the product and substrate peptide mixture passes the lasers within the instrument, these pools are detected (λex=488 nm, λem=568 nm) and resolved as separate peaks. The ratio between these peaks reflects the activity of the compound at that concentration, in that well, under those conditions.
Inhibitors were dissolved in 100% DMSO at a stock concentration of 10 mM. A 100×, 10-point, 4-fold serial dilution of each inhibitor was created in 100% DMSO either manually or on a Hamilton STAR liquid handler, starting at a relevant concentration, usually 1 mM. A volume of 0.130 μL of each concentration was transferred to the relevant wells of a 384-well plate (Greiner 781 201) in duplicate using a TTPLabtech Mosquito nano-litre dispenser. Using a Multidrop Combi, the remaining constituents of the kinase reaction were added to the 130 nL of dosed compound as follows (see table below for final reaction details):
Enzyme activity assays at the ^APPKM for ATP or 1 mM ATP: In each well of a 384-well plate, 0.1-15 nM of untreated enzyme was incubated in a total of 13 μL of buffer (100 mM HEPES pH 7.5, 0.015% Brij 35, 10 mM MgCl2, 1 mM DTT) with 1.5 μM fluorescent peptid and 20-1000 μM ATP, at 25° C., for 60-180 minutes in the presence or absence of a dosed concentration series of compound (1% DMSO final concentration). The kinase reactions were stopped by the addition of 70 μl of Stop buffer (100 mM HEPES pH 7.5, 0.015% Brij 35, 35 mM EDTA and 0.2% of Coating Reagent 3 (Caliper Lifesciences)). The plates were read on a Caliper EZReader 2 as described above.

T1 sequence (Q92918 whole entry): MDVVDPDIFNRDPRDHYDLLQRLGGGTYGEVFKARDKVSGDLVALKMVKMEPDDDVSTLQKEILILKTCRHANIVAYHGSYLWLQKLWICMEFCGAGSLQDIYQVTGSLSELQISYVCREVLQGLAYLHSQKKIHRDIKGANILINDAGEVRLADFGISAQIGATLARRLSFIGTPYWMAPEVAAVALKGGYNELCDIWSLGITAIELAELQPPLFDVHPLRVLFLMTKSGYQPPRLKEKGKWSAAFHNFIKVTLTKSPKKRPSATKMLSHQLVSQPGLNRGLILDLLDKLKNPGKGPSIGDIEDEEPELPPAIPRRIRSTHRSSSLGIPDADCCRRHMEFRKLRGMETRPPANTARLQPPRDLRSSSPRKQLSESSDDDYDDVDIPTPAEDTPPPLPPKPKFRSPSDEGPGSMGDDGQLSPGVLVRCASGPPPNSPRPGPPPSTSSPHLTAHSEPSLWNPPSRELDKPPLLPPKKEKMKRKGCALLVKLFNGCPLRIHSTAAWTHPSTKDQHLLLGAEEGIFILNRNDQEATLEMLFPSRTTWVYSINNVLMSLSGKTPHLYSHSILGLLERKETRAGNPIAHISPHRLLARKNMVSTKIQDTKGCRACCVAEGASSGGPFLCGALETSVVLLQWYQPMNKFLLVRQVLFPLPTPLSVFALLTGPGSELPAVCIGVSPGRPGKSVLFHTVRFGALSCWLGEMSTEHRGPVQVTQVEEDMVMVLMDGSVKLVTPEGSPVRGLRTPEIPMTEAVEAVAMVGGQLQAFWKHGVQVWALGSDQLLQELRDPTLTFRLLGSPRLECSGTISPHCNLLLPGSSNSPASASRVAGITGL

| IC50 | SMILES |
| --- | --- |
| 0.15 nM | C[C@H]1OC(=O)c2ccc(Nc3cc4c(C(C)(C)N)cnc(O[C@H]5C[C@@H](S(C)(=O)=O)C5)c4cn3)nc2C12CC2 (single isomer, unassigned) [Compound 24] |
| 0.22 nM | C[C@H](C[C@@H](C)S(C)(=O)=O)Oc1ncc([C@@](C)(N)C2CC2)c2cc(Nc3ccc4c(n3)CC(C)(C)OC4=O)ncc12 (single isomer, unassigned) [Compound 108] |
| 9.8 nM | C[C@@H]1c2nc(Nc3cc4c(C(C)(C)N)cnc(O[C@H](CCS(C)(=O)=O)C(F)(F)F)c4cn3)ccc2C(=O)OC1(C)C (single isomer, unassigned) [Compound 173] |
| 0.77 nM | CC[C@@](C)(N)c1cnc(O[C@H](C)CCS(C)(=O)=O)c2cnc(Nc3ccc4c(n3)C(C)(C)[C@H](C)OC4=O)cc12 (single isomer, unassigned) [Compound 96] |
| 0.18 nM | CC[C@@](C)(N)c1cnc(O[C@H]2C[C@@H](S(C)(=O)=O)C2)c2cnc(Nc3ccc4c(n3)CC(C)(C)OC4=O)cc12 [Compound 32] |
| 0.26 nM | C[C@@H]1OC(=O)c2ccc(Nc3cc4c(C(C)(C)N)cnc(OC5CS(=O)(=O)C5)c4cn3)nc2[C@H]1C [Compound 1] |
| 0.31 nM | CC[C@@](C)(N)c1cnc(O[C@H]2C[C@@H](S(C)(=O)=O)C2)c2cnc(Nc3ccc4c(n3)[C@H](C)COC4=O)cc12 (single isomer, unassigned) [Compound 8] |
| 0.23 nM | C[C@@H]1[C@H](S(C)(=O)=O)C[C@H]1Oc1ncc(C(C)(C)N)c2cc(Nc3ccc4c(n3)[C@@H](C)C(C)(C)OC4=O)ncc12 (single isomer, unassigned) [Compound 70] |
| 0.62 nM | C[C@@H]1OC(=O)c2ccc(Nc3cc4c(C(C)(C)N)cnc(O[C@@H](C)C[C@@H]5CCCS5(=O)=O)c4cn3)nc2[C@H]1C (single isomer, unassigned) [Compound 154] |
| 0.53 nM | COC[C@@](C)(N)c1cnc(OCCCS(C)(=O)=O)c2cnc(Nc3ccc4c(n3)[C@@H](C)[C@H](C)OC4=O)cc12 [Compound 57] |
| 0.24 nM | CCS(=O)(=O)[C@H](C)C[C@@H](C)Oc1ncc(C(C)(C)N)c2cc(Nc3ccc4c(n3)[C@@H](C)[C@H](C)OC4=O)ncc12 [Compound 89] |
| 0.25 nM | CC[C@@](C)(N)c1cnc(O[C@H]2C[C@@H](S(C)(=O)=O)C2)c2cnc(Nc3ccc4c(n3)[C@@H](C)[C@@H](C)OC4=O)cc12 (single isomer, unassigned) [Compound 149] |
| 0.9 nM | C[C@@H]1OC(=O)c2ccc(Nc3cc4c(C(C)(C)N)cnc(O[C@@H](C)CCS(C)(=O)=O)c4cn3)nc2[C@H]1C (single isomer, unassigned) [Compound 19] |
| 0.55 nM | CC[C@@](C)(N)c1cnc(O[C@H](C)CCS(C)(=O)=O)c2cnc(Nc3ccc4c(n3)C(C)(C)[C@@H](C)OC4=O)cc12 [Compound 178] |
| 0.48 nM | CCS(=O)(=O)[C@H]1C[C@@H](Oc2ncc([C@H](N)C3CC3)c3cc(Nc4ccc5c(n4)[C@@H](C)C(C)(C)OC5=O)ncc23)C1 (single isomer, unassigned) [Compound 101] |
| 0.2 nM | C[C@H](CCS(C)(=O)=O)Oc1ccc(C(C)(C)N)c2cc(Nc3ccc4c(n3)[C@@H](C)C(C)(C)OC4=O)ncc12 (single isomer, unassigned) [Compound 45] |
| 1.86 nM | C[C@@H]1c2nc(Nc3cc4c(C(C)(C)N)cnc(O[C@@H](CCS(C)(=O)=O)C(F)(F)F)c4cn3)ccc2C(=O)OC1(C)C (single isomer, unassigned) [Compound 172] |
| 0.94 nM | C[C@H](C[C@H]1CCCS1(=O)=O)Oc1ncc(C(C)(C)N)c2cc(Nc3ccc4c(n3)[C@@H](C)C(C)(C)OC4=O)ncc12 (single isomer, unassigned) [Compound 161] |
| 0.54 nM | C[C@@H]1c2nc(Nc3cc4c(C(C)(C)N)cnc(OC[C@H]5CCS(=O)(=O)C5)c4cn3)ccc2C(=O)OC1(C)C (single isomer, unassigned) [Compound 36] |
| 5.1 nM | CC[C@@](C)(N)c1cnc(O[C@H](C)CC(C)(C)[S@@](C)(=N)=O)c2cnc(Nc3ccc4c(n3)C(C)(C)[C@@H](C)OC4=O)cc12 (single isomer, unassigned) [Compound 190] |
| 0.22 nM | C[C@@H]1c2nc(Nc3cc4c(C(C)(C)N)cnc(O[C@H]5C[C@H](S(=O)(=O)N(C)C)C5)c4cn3)ccc2C(=O)OC1(C)C [Compound 119] |

| IC50 | SMILES |
| --- | --- |
| 0.15 nM | C[C@H](C[C@@H](C)S(C)(=O)=O)Oc1ncc([C@@](C)(N)C2CC2)c2cc(Nc3ccc4c(n3)[C@@H](C)[C@H](C)OC4=O)ncc12 (single isomer, unassigned) [Compound 109] |
| 0.22 nM | CC[C@@](C)(N)c1cnc(O[C@H](C)C[C@@H](C)S(C)(=O)=O)c2cnc(Nc3ccc4c(n3)C(C)(C)[C@H](C)OC4=O)cc12 (single isomer, unassigned) [Compound 130] |
| 0.86 nM | C[C@@H]1OC(=O)c2ccc(Nc3cc4c(C(C)(C)N)cnc(O[C@@H]5CC[C@H](S(C)(=O)=O)C5)c4cn3)nc2[C@H]1C (single isomer, unassigned) [Compound 40] |
| 0.3 nM | CC[C@@](C)(N)c1cnc(OCCCS(C)(=O)=O)c2cnc(Nc3ccc4c(n3)C(C)(C)COC4=O)cc12 [Compound 22] |
| 1.1 nM | CC[C@@](C)(N)c1cnc(O[C@@H](C)CCS(C)(=O)=O)c2cnc(Nc3ccc4c(n3)C(C)(C)[C@@H](C)OC4=O)cc12 [Compound 177] |
| 0.15 nM | CC[C@@](C)(N)c1cnc(O[C@H]2C[C@@H](S(C)(=O)=O)C2)c2cnc(Nc3ccc4c(n3)C3(CC3)C(C)(C)OC4=O)cc12 [Compound 100] |
| 0.56 nM | C[C@@H]1c2nc(Nc3cc4c(C(C)(C)N)cnc(OCC5CS(=O)(=O)C5)c4cn3)ccc2C(=O)OC1(C)C [Compound 12] |
| 0.22 nM | CC[C@@](C)(N)c1cnc(O[C@@H](C)CC(C)(C)S(C)(=O)=O)c2cnc(Nc3ccc4c(n3)[C@@H](C)[C@H](C)OC4=O)cc12 (single isomer, unassigned) [Compound 185] |
| 0.51 nM | C[C@H]1[C@H](Oc2ncc(C(C)(C)N)c3cc(Nc4ccc5c(n4)[C@@H](C)C(C)(C)OC5=O)ncc23)C[C@@H]1S(C)(=O)=O (single isomer, unassigned) [Compound 68] |
| 0.2 nM | C[C@@H]1[C@@H](Oc2ncc(C(C)(C)N)c3cc(Nc4ccc5c(n4)[C@@H](C)[C@H](C)OC5=O)ncc23)C[C@H]1S(C)(=O)=O (single isomer, unassigned) [Compound 31] |
| 0.52 nM | COC[C@@](C)(N)c1cnc(O[C@H]2C[C@H](CS(C)(=O)=O)C2)c2cnc(Nc3ccc4c(n3)[C@@H](C)[C@H](C)OC4=O)cc12 [Compound 120] |
| 0.59 nM | COC[C@@](C)(N)c1cnc(O[C@H]2C[C@@H](CS(C)(=O)=O)C2)c2cnc(Nc3ccc4c(n3)[C@@H](C)[C@H](C)OC4=O)cc12 [Compound 121] |
| 1.77 nM | C[C@@H]1COC(=O)c2ccc(Nc3cc4c(C(C)(C)N)cnc(O[C@H]5C[C@@H](S(C)(=O)=O)C5)c4cn3)nc21 (single isomer, unassigned) [Compound 5] |
| 0.44 nM | C[C@@H]1c2nc(Nc3cc4c(C(C)(C)N)cnc(OC[C@H]5CCS(=O)(=O)C5)c4cn3)ccc2C(=O)OC1(C)C (single isomer, unassigned) [Compound 37] |
| 0.28 nM | C[C@@H]1[C@H](S(C)(=O)=O)C[C@H]1Oc1ncc(C(C)(C)N)c2cc(Nc3ccc4c(n3)[C@@H](C)C(C)(C)OC4=O)ncc12 (single isomer, unassigned) [Compound 71] |
| 0.79 nM | C[C@@H]1[C@@H](Oc2ncc(C(C)(C)N)c3cc(Nc4ccc5c(n4)[C@@H](C)[C@H](C)OC5=O)ncc23)C[C@H]1S(C)(=O)=O (single isomer, unassigned) [Compound 30] |
| 0.21 nM | CC[C@@](C)(N)c1cnc(O[C@H]2C[C@@H](S(C)(=O)=O)C2)c2cnc(Nc3ccc4c(n3)C(C)(C)COC4=O)cc12 [Compound 33] |
| 0.15 nM | C[C@@H]1c2nc(Nc3cc4c(C(C)(C)N)cnc(OCCCS(C)(=O)=O)c4cn3)ccc2C(=O)OC1(C)C [Compound 17] |
| 0.1 nM | CC[C@@](C)(N)c1cnc(O[C@H]2C[C@@H](S(C)(=O)=O)C2)c2cnc(Nc3ccc4c(n3)C3(CC3)[C@@H](C)OC4=O)cc12 (single isomer, unassigned) [Compound 58] |
| 0.26 nM | CC[C@@](C)(N)c1cnc(O[C@@H](C)CCS(=O)(=O)C2CC2)c2cnc(Nc3ccc4c(n3)[C@@H](C)[C@H](C)OC4=O)cc12 (single isomer, unassigned) [Compound 107] |
| 0.26 nM | CCC[C@@](C)(N)c1cnc(O[C@H](C)C[C@@H](C)S(C)(=O)=O)c2cnc(Nc3ccc4c(n3)CC(C)(C)OC4=O)cc12 (single isomer, unassigned) [Compound 124] |
